From paper PMC8025945 (Journal of medicinal chemistry, 2017)
Like-named read-outs stand apart in the source and are kept apart here. Blank lines part the entries; values can stand above or below the molecule they belong to.

Experiments:
recombinant Top1 = molecular target: T1, recombinant Top1 (Homo sapiens, UniProt P11387); assay: Top1-mediated DNA cleavage assay; type: biochemical; details: semiquantitative scale relative to 1 μM MJ-III-65 (6) and 1 μM camptothecin (1)
T1 sequence (P11387 1-765): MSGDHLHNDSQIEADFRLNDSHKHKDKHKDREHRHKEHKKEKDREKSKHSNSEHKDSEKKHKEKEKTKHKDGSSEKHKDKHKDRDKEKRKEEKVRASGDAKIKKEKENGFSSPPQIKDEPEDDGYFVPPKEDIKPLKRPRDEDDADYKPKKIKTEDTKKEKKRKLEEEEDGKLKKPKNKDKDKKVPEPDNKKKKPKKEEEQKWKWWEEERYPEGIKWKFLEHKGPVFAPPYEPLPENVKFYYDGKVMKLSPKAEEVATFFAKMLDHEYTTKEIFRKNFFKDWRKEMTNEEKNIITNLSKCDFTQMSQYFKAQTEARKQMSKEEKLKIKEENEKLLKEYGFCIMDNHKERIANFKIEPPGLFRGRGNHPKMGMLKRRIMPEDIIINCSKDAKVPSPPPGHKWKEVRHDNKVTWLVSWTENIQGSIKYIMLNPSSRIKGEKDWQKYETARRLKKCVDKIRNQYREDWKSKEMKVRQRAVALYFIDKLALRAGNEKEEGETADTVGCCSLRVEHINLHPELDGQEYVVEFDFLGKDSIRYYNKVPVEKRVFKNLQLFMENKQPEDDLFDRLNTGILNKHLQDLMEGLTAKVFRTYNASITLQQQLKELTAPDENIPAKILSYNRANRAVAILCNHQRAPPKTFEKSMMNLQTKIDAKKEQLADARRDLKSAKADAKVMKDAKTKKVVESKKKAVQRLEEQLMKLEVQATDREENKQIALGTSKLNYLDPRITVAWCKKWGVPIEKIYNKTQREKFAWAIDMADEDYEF

DU-145 = assay: NCI-60 human tumor cell line screen, prostate DU-145; details: read-out: cytotoxicity (GI50) prostate DU-145; 50% growth inhibition
HOP-62 = assay: NCI-60 human tumor cell line screen, lung HOP-62; details: read-out: cytotoxicity (GI50) lung HOP-62; 50% growth inhibition
SF-539 = assay: NCI-60 human tumor cell line screen, CNS SF-539; details: read-out: cytotoxicity (GI50) CNS SF-539; 50% growth inhibition
SN12C = assay: NCI-60 human tumor cell line screen, renal SN12C; details: read-out: cytotoxicity (GI50) renal SN12C; 50% growth inhibition
OVCAR-3 = assay: NCI-60 human tumor cell line screen, ovarian OVCAR-3; details: read-out: cytotoxicity (GI50) ovarian OVCAR-3; 50% growth inhibition
UACC-62 = assay: NCI-60 human tumor cell line screen, melanoma UACC-62; details: read-out: cytotoxicity (GI50) melanoma UACC-62; 50% growth inhibition
MCF-7 = assay: NCI-60 human tumor cell line screen, breast MCF-7; details: read-out: cytotoxicity (GI50) breast MCF-7; 50% growth inhibition
HCT-116 = assay: NCI-60 human tumor cell line screen, colon HCT-116; details: read-out: cytotoxicity (GI50) colon HCT-116; 50% growth inhibition
zebrafish embryos = details: for lethality in zebrafish (comparison between compounds): statistical comparison of 9, 16b and 17b
[1] = tested on: NCI-60 human tumor cell lines; assay: NCI-60 mean graph midpoint; details: read-out: MGM GI50

SMILES: O=C1c2ccccc2-c2c1c1ccc([N+](=O)[O-])cc1c(=O)n2CCCn1ccnc1 [compound 7]
GI50 (DU-145): 17 nM
GI50 (HOP-62): 190 nM
GI50 (SF-539): 16 nM
GI50 (SN12C): 15 nM
GI50 (OVCAR-3): 864 nM
GI50 (UACC-62): 12 nM
GI50 (MCF-7): 2170 nM
enzyme inhibitory activity Top1 (compound-induced DNA cleavage score) (recombinant Top1): ++++
GI50 (HCT-116): 274 nM

SMILES: CCNCCCn1c2c(c3ccc(F)cc3c1=O)C(=O)c1cc(OC)cnc1-2 [17h, 6-(3-(Ethylamino)propyl)-3-fluoro-9-methoxy-5H-pyrido[3′,2′:4,5]cyclopenta[1,2-c]isoquinoline-5,11(6H)-dione]
enzyme inhibitory activity Top1 (compound-induced DNA cleavage score) (recombinant Top1): ++

SMILES: COc1cnc2c(c1)C(=O)c1c-2n(CCCn2ccnc2)c(=O)c2cc([N+](=O)[O-])ccc12 [compound 9]
GI50 (DU-145): < 10 nM
zebrafish survival percentage (zebrafish embryos; 0.1 μM in medium, 48 h after fertilization): 0 ± 0 %
zebrafish survival percentage (zebrafish embryos; 0.1 μM in medium, 72 h after fertilization): 0 ± 0 %
zebrafish survival percentage (zebrafish embryos; 0.1 μM in medium, 96 h after fertilization): 0 ± 0 %
zebrafish survival percentage (zebrafish embryos; 0.1 μM in medium, 120 h after fertilization): 0 ± 0 %
zebrafish survival percentage (zebrafish embryos; 1 μM in medium, 24 h after fertilization): 0 ± 0 %
zebrafish survival percentage (zebrafish embryos; 1 μM in medium, 48 h after fertilization): 0 ± 0 %
zebrafish survival percentage (zebrafish embryos; 1 μM in medium, 72 h after fertilization): 0 ± 0 %
zebrafish survival percentage (zebrafish embryos; 1 μM in medium, 96 h after fertilization): 0 ± 0 %
zebrafish survival percentage (zebrafish embryos; 1 μM in medium, 120 h after fertilization): 0 ± 0 %
zebrafish survival percentage (zebrafish embryos; 10 μM in medium, 24 h after fertilization): 0 ± 0 %
zebrafish survival percentage (zebrafish embryos; 10 μM in medium, 48 h after fertilization): 0 ± 0 %
zebrafish survival percentage (zebrafish embryos; 10 μM in medium, 72 h after fertilization): 0 ± 0 %
zebrafish survival percentage (zebrafish embryos; 10 μM in medium, 96 h after fertilization): 0 ± 0 %
zebrafish survival percentage (zebrafish embryos; 10 μM in medium, 120 h after fertilization): 0 ± 0 %
lethality in zebrafish (comparison between compounds) (zebrafish embryos): significantly more lethal
GI50 (HOP-62): < 10 nM
GI50 [1]: 21 nM
GI50 (SF-539): < 10 nM
GI50 (SN12C): < 10 nM
GI50 (OVCAR-3): 25 nM
GI50 (UACC-62): < 10 nM
GI50 (MCF-7): < 10 nM
GI50 (HCT-116): < 10 nM

SMILES: CC[C@@]1(O)C(=O)OCc2c1cc1n(c2=O)Cc2cc3ccccc3nc2-1 [compound 1, camptothecin]
enzyme inhibitory activity Top1 (compound-induced DNA cleavage score) (recombinant Top1): ++++

SMILES: COc1cnc2c(c1)C(=O)c1c-2n(CCCn2ccnc2)c(=O)c2cc(F)ccc12 [compound 17b, 3-Fluoro-6-(3-(1H-imidazol-1-yl)propyl)-9-methoxy-5H-pyrido[3′,2′:4,5]-cyclopenta[1,2-c]isoquinoline-5,11(6H)-dione]
lethality in zebrafish (comparison between compounds) (zebrafish embryos): lethality difference between them is not significant
enzyme inhibitory activity Top1 (compound-induced DNA cleavage score) (recombinant Top1): +++

SMILES: COc1cnc2c(c1)C(=O)c1c-2n(CCCn2ccnc2)c(=O)c2cc(Cl)ccc12 [compound 16b, 3-Chloro-6-(3-(1H-Imidazol-1-yl)propyl)-9-methoxy-5H-pyrido[3′,2′:4,5]cyclopenta[1,2-c]isoquinoline-5,11(6H)-dione]
lethality in zebrafish (comparison between compounds) (zebrafish embryos): lethality difference between them is not significant
enzyme inhibitory activity Top1 (compound-induced DNA cleavage score) (recombinant Top1): +++

SMILES: COc1cnc2c(c1)C(=O)c1c-2n(CCCN2CCOCC2)c(=O)c2cc([N+](=O)[O-])ccc12 [compound 10]
GI50 (DU-145): 40 nM
GI50 (HOP-62): 51 nM
GI50 (SF-539): 35 nM
GI50 (SN12C): 43 nM
GI50 (OVCAR-3): 110 nM
GI50 (UACC-62): 40 nM
GI50 (MCF-7): 20 nM
enzyme inhibitory activity Top1 (compound-induced DNA cleavage score) (recombinant Top1): ++++
GI50 (HCT-116): 50 nM

SMILES: CNCCCn1c2c(c3ccc(F)cc3c1=O)C(=O)c1cc(OC)cnc1-2 [17g, 3-Fluoro-9-methoxy-6-(3-(methylamino)propyl)-5H-pyrido[3′,2′:4,5]cyclopenta[1,2-c]isoquinoline-5,11(6H)-dione]
enzyme inhibitory activity Top1 (compound-induced DNA cleavage score) (recombinant Top1): +

SMILES: COc1cnc2c(c1)C(=O)c1c-2n(CCCNC2=NCCS2)c(=O)c2cc(Cl)ccc12 [compound 16c, 3-Chloro-6-(3-((4,5-dihydrothiazol-2-yl)amino)propyl)-9-methoxy-5H-pyrido[3′,2′:4,5]cyclopenta[1,2-c]isoquinoline-5,11(6H)-dione]
enzyme inhibitory activity Top1 (compound-induced DNA cleavage score) (recombinant Top1): ++

SMILES: COc1cnc2c(c1)C(=O)c1c-2n(CCCN2CCNCC2)c(=O)c2cc(F)ccc12 [17e, 3-Fluoro-9-methoxy-6-(3-(piperazin-1-yl)propyl)-5H-pyrido[3′,2′:4,5]cyclopenta[1,2-c]isoquinoline-5,11(6H)-dione]
enzyme inhibitory activity Top1 (compound-induced DNA cleavage score) (recombinant Top1): +

SMILES: COc1cnc2c(c1)C(=O)c1c-2n(CCCN2CCOCC2)c(=O)c2cc(Cl)ccc12 [compound 16a, 3-Chloro-9-methoxy-6-(3-morpholinopropyl)-5H-pyrido[3′,2′:4,5]cyclopenta[1,2-c]isoquinoline-5,11(6H)-dione]
enzyme inhibitory activity Top1 (compound-induced DNA cleavage score) (recombinant Top1): +++

SMILES: COc1cnc2c(c1)C(=O)c1c-2n(CCCN2CCOCC2)c(=O)c2cc(F)ccc12 [17a, 3-Fluoro-9-methoxy-6-(3-morpholinopropyl)-5H-pyrido[3′,2′:4,5]cyclopenta[1,2-c]isoquinoline-5,11(6H)-dione]
enzyme inhibitory activity Top1 (compound-induced DNA cleavage score) (recombinant Top1): +++

More lines, now with the values ahead:

enzyme inhibitory activity Top1 (compound-induced DNA cleavage score) (recombinant Top1): +
SMILES: COc1cnc2c(c1)C(=O)c1c-2n(CCCN2CCC(O)CC2)c(=O)c2cc(F)ccc12 [17d, 3-Fluoro-6-(3-(4-hydroxypiperidin-1-yl)propyl)-9-methoxy-5H-pyrido[3′,2′:4,5]cyclopenta[1,2-c]isoquinoline-5,11(6H)-dione]

enzyme inhibitory activity Top1 (compound-induced DNA cleavage score) (recombinant Top1): ++
SMILES: COc1cnc2c(c1)C(=O)c1c-2n(CCCNC(C)C)c(=O)c2cc(F)ccc12 [17f, 3-Fluoro-6-(3-(isopropylamino)propyl)-9-methoxy-5H-pyrido[3′,2′:4,5]cyclopenta[1,2-c]isoquinoline-5,11(6H)-dione]

enzyme inhibitory activity Top1 (compound-induced DNA cleavage score) (recombinant Top1): ++++
SMILES: COc1cnc2c(c1)C(=O)c1c-2n(CCCN2CCC(O)CC2)c(=O)c2cc(Cl)ccc12 [compound 16d, 3-Chloro-6-(3-(4-hydroxypiperidin-1-yl)propyl)-9-methoxy-5H-pyrido[3′,2′:4,5]cyclopenta[1,2-c]isoquinoline-5,11(6H)-dione]

enzyme inhibitory activity Top1 (compound-induced DNA cleavage score) (recombinant Top1): ++
SMILES: COc1cnc2c(c1)C(=O)c1c-2n(CCCNC(C)C)c(=O)c2cc(Cl)ccc12 [16f, 3-Chloro-9-methoxy-6-(3-(isopropylamino)propyl)-5H-pyrido[3′,2′:4,5]cyclopenta[1,2-c]isoquinoline-5,11(6H)-dione]

enzyme inhibitory activity Top1 (compound-induced DNA cleavage score) (recombinant Top1): +
SMILES: COc1cnc2c(c1)C(=O)c1c-2n(CCCN2CCN(C)CC2)c(=O)c2cc(Cl)ccc12 [compound 16j, 3-Chloro-9-methoxy-6-(3-(4-methylpiperazin-1-yl)propyl)-5H-pyrido[3′,2′:4,5]cyclopenta[1,2-c]isoquinoline-5,11(6H)-dione]

enzyme inhibitory activity Top1 (compound-induced DNA cleavage score) (recombinant Top1): ++
SMILES: COc1cnc2c(c1)C(=O)c1c-2n(CCCNC2=NCCS2)c(=O)c2cc(F)ccc12 [17c, 3-Fluoro-6-(3-((4,5-dihydrothiazol-2-yl)amino)propyl)-9-methoxy-5H-pyrido[3′,2′:4,5]cyclopenta[1,2-c]isoquinoline-5,11(6H)-dione]

enzyme inhibitory activity Top1 (compound-induced DNA cleavage score) (recombinant Top1): +++
SMILES: COc1cnc2c(c1)C(=O)c1c-2n(CCCN2CCCC2)c(=O)c2cc(F)ccc12 [17i, 3-Fluoro-9-methoxy-6-(3-(pyrrolidin-1-yl)propyl)-5H-pyrido[3′,2′:4,5]cyclopenta[1,2-c]isoquinoline-5,11(6H)-dione]

enzyme inhibitory activity Top1 (compound-induced DNA cleavage score) (recombinant Top1): +
SMILES: COc1cnc2c(c1)C(=O)c1c-2n(CCCN2CCNCC2)c(=O)c2cc(Cl)ccc12 [16e, 3-Chloro-9-methoxy-6-(3-(piperazin-1-yl)propyl)-5H-pyrido[3′,2′:4,5]cyclopenta[1,2-c]isoquinoline-5,11(6H)-dione]
